Data set [1] is described as follows: stability in artificial intestinal juice. The format is in vitro ADME. To be noted: both in pure form and in diluted form.
The nature of data set [2]: stability in artificial gastric juice. It is filed as in vitro ADME. To be noted: both in pure form and in diluted form.

This is an account of results in patent publication US6395308B1, “Purified extract from Harpagophytum procumbens and/or Harpagophytum zeyheri dence” (Finzekberg GmbH & Co. KG, priority 1996, dated 2002).

Each structure is given as a SMILES string.

With `C[C@]1(OC(=O)/C=C/c2ccccc2)C[C@@H](O)[C@]2(O)C=CO[C@@H](O[C@@H]3O[C@H](CO)[C@@H](O)[C@H](O)[C@H]3O)[C@@H]21` [harpagoside], the “stability in artificial intestinal juice” value in data set [1] is listed as “stable for at least two hours”. The “stability in artificial gastric juice” value in data set [2] is “stable for at least two hours”.
